The values that follow come from US12285435B2, “Multivesicular liposome formulations of dexamethasone” (Pacira Pharmaceuticals, Inc., priority 2021, dated 2025).

Data set [1] in a line: Pharmacokinetic study of subcutaneous DSP-MVL formulations vs bolus DSP in rats (dexamethasone plasma levels). It is filed as in vivo. The following applies: rat. Here is the method:
Pharmacokinetic (PK) studies of the subcutaneous dosing of DSP discussed herein were performed on rats where bolus DSP was compared to various formulations of DSP-MVLs at doses between 1.0 to 3.5 mg/kg for rats and at 0.5 mg/kg for beagles. Formulations 3AA, 5AA, 8AA, 11AA, 14AA, 4B, and 1C were diluted to 19-20% PPV from the initial PPV of about 30-45% with a final DSP concentration of approximately about 3 mg/mL to 3.5 mg/mL. Formulations 47-49 were not diluted, and the DSP concentration in the final product was approximately 7 mg/mL. In addition, PK studies of Formulation 18AA were performed on beagles through subcutaneous and epidural dosing of DSP of about 0.5 mg/kg.
Plasma samples were collected at different times points (0, 24, 48, 72, 96, 120, 144 and 168 hours post dose) for analysis. Blood samples were collected via the right saphenous vein using a 19-gauge needle prick or cardiac puncture for the final time point, placed into chilled tubes containing the appropriate anticoagulant, inverted several times to mix, protected from light, and kept on ice until centrifugation. A summary of the data in FIG. 1-6 is set forth below in Tables 1-2. For the rat studies, Cumulative % AUC is expressed as a percentage of the total AUC obtained in animals administered with Free DSP. For the dog studies, Cumulative % AUC is expressed as a percentage of the total AUC for each dog.
FIG. 1 is a line chart illustrating the dose normalized dexamethasone plasma levels obtained in rats as a function of time, following administration of several DSP-MVL formulations varying in internal pH (Formulations 47-49) as compared to DSP in a saline solution (“Free DSP Solution” Formulation).
FIG. 4 is a line chart illustrating the dose normalized dexamethasone plasma level obtained in rats as a function of time, following administration of two DSP-MVL formulations with and without triolein (Formulations 5AA and 3AA).
FIG. 5 is a line chart illustrating the dose normalized dexamethasone plasma levels obtained in rats as a function of time, following administration of several DSP-MVL formulations varying in lipid component concentrations (Formulations 4B and 1C).

The conditions of data set [2]: DSP, rapid absorption into the blood stream; cited from earlier work.
[3] abbreviates: percentage of the total AUC obtained in animals administered with Free DSP.

In the case of “dexamethasone sodium phosphate [Free DSP]”, in data set [1], the Tmax was 1 h. Besides, the AUC/dose in data set [1] (dose normalized) came to 1182 ng·h/mL/mg/kg. Further, in data set [1] (setting [3]), the “Cumulative AUC % at 7 days” value was 100% and the “Cumulative AUC % at 14 days” value is recorded as 100%. For the same substance, the plasma half-life in data set [2] was approximately 3.33 h.
